Laboratory results reported in patent publication US5371102A, “Compositions and methods of inhibiting thyroid activity” (priority 1993, dated 1994).
Read-outs that look alike come from different tables or passages of the source.

Target: T1, LPX (Bos taurus, UniProt P80025)
T1 construct: purchased Sigma Chemical Company
Assay: LPX iodide ion oxidation activity after incubation and dilution
Type: biochemical, bovine
Details: for remaining activity at 100 µM: 100 μM DMMBI, 100 s at 25° C., 200-fold dilution, n=4, read-out: Rate (% of control)
Text: Materials used in the examples below were obtained from the following sources. Bovine LPX, bovine liver catalase, glucose oxidase, 30% hydrogen peroxide, glucose, guaiacol, ABTS and deuterium oxide were purchased from Sigma Chemical Company. Selenium dioxide, MBI ^13 CH3 I and PBA were purchased from Aldrich Chemical Company and PBA was purified as previously described by Fieset et al., Reagents for Organic Synthesis, Vol. I, pp.135-139, John Wiley and Sons, N.Y. (1967). LPX purity was checked by PAGE, as described by Doerge, D.R., et al. in, Biochem. Pharmacol., Vol.36, pp.972-974 (1986). TPX was purified from hog thyroids obtained from a local slaughterhouse by published procedures. Doerge & Takazowa, Chemical Research in Toxicology, Vol. 3, pp. 98-101 (1990). TPX purity was determined by LC and its concentration determined spectophotometrically. Hydroperoxide concentrations were determined by iodometric titration, as described by Kolthoff, et al., in "Quantitative Chemical Analysis", Macmillan, London, pp.842-860 (1969). MMBI, and BI were synthesized by published procedures as described by Doerge, D.R., Biochem, Vol. 27, pp. 3697-3700 (1988) and were recrystallized from aqueous ethanol. MeBI was purified by distillation and DMeBI^+ was synthesized and purified by recrystallization from ethyl acetate/methanol. 1-^13 C-MMBI was synthesized from ^13 CH3 I according to the procedure disclosed by Doerge, D.R., in, J. Lab. Comp. and Radiopharm., Vol.25, pp.985-990 (1988). PPHP and PPA were prepared, purified and analyzed as previously described by Doerge, Biochem, Vol.27, p.11 (1988). The methyl ester of 1-methyl-benzimidazole-2-sulfinic acid was prepared by addition of hydrogen peroxide (5 equivalents of a 10 M solution) to MMBI (0.1 M) in methanol. The products, MeBI and the ester, were obtained following preparative TLC on silica (Uniplate, Analtech Co., Newark, DL) using 5% methanol/chloroform as eluant.
The following experiment was performed to determine the effect of DMMBI oxidation on LPX activity. LPX (0.1 μM, final concentration) was incubated with hydrogen peroxide (100 μM), iodide ion (5 mM) and DMMBI (100 μM), as indicated in Table 2. After a 100 second incubation at 25° C., an aliquot was diluted 200-fold and the iodide ion oxidation activity determined. Values shown in Table 2, are averages +/- standard deviations (n=4) of the percentage relative to untreated LPX.

remaining activity at 100 µM (LPX + DMMBI): 100 ± 4%
remaining activity at 100 µM (LPX + H2O2 + DMMBI + I-): 107 ± 6%
remaining activity at 100 µM (LPX + H2O2 + DMMBI): 104 ± 6%
SMILES: Cn1c(=S)n(C)c2ccccc21 [DMMBI, 1,3-dimethylbenzimidazole-2-thione]
loss of enzymatic activity (LPX/hydrogen peroxide, absence of iodide ion): did not cause any loss of enzymatic activity
loss of enzymatic activity (iodide ion present, DMMBI converted to DMeBI+, 1/200 dilution): no loss of enzymatic activity was detected
